Results reported in PMC6718442, “11β-Hydroxysteroid dehydrogenases control access of 7β,27-dihydroxycholesterol to retinoid-related orphan receptor γ” (Journal of Lipid Research, 2019).

How the values were obtained:
mouse 11β-hsd1 = target: T1, mouse 11β-hsd1 (Mus musculus, UniProt P50172); experiment: Inhibition of murine 11β-hsd1-dependent oxoreduction of cortisone in HEK-293 cell lysates; type: biochemical; conditions: for IC50: mouse ortholog, 200 nM cortisone, 10 min, 37°C, read-out: IC50, mouse 11β-hsd1-dependent conversion of cortisone to cortisol
T1 construct: expressed in transfected cells; host or cells: HEK-293
Method: 11β-HSD1 and 11β-HSD2 enzyme activities were assessed in lysates of HEK-293 cells stably expressing the respective enzyme as reported earlier ([40]). Briefly, 11β-HSD1-dependent oxoreductase activity was determined by the incubation of lysates with 200 nM of radiolabeled cortisone, 500 μM of NADPH, and the test substance or vehicle for 10 min at 37°C. 11β-HSD2-dependent oxidation of cortisol was measured instead by the addition of 50 nM of radiolabeled cortisol and 500 μM of NAD^+. The enzymatic reaction was stopped by introducing an excess amount of unlabeled cortisone and cortisol (1:1, 2 mM unlabeled each, in methanol). Cortisone and cortisol were separated using TLC and a chloroform and methanol (9:1, v/v) mixture. The bands were detected under UV light, scraped off the plate, and metabolism of the radiolabeled substrate was then evaluated by scintillation counting and the substrate conversion determined and compared with the control sample. Data (mean ± SD) were normalized to the control (DMSO) sample and obtained from at least three independent experiments.

mouse 11β-hsd2 = target: T2, mouse 11β-hsd2 (Mus musculus, UniProt P51661); experiment: 11β-hsd2 activity in mouse kidney homogenates (corticosterone to 11-dehydrocorticosterone); type: biochemical
T2 construct: The determination of 11β-hsd2 activity in mouse kidney homogenates; from tissue; host or cells: kidney of adult male C57BL6 mice
T2 sequence (P51661 1-386): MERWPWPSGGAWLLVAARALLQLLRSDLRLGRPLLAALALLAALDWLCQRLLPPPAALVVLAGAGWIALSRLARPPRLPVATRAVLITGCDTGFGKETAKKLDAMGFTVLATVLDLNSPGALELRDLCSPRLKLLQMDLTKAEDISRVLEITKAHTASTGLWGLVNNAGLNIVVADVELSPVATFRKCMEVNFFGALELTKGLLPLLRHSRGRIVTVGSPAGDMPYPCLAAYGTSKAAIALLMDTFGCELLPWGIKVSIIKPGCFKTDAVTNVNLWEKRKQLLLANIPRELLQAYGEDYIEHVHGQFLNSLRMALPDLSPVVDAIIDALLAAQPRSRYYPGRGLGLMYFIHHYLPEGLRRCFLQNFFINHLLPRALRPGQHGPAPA
Method: The determination of 11β-hsd2 activity in mouse kidney homogenates was conducted as described earlier ([41]). Briefly, for homogenate preparation, kidneys from adult male mice (C57BL6) were snap-frozen and sonicated in homogenization buffer [250 mM sucrose, 10 mM HEPES (pH 7.4); 900 μl for 100 mg of tissue]. Then, the homogenate was centrifuged (2,000 g, 4°C for 10 min) and the total protein concentration determined. The enzymatic reaction was assessed using 0.075 mg/ml total protein of the kidney homogenate in incubation buffer [300 mM NaCl, 20 mM Tris/HCl, 1 mM EDTA, 10% glycerol (pH 7.7)], different concentrations of oxysterols, 50 nM of corticosterone (containing 50 nCi [1,2,6,7-^3H] corticosterone), and 500 μM NAD^+ at 37°C for 20 min. Corticosterone and 11-dehydrocorticosterone were separated using TLC. Substrate conversion was determined by scintillation counting. Data (mean ± SD) were normalized to vehicle control (DMSO) and obtained from at least three independent experiments.

T1 sequence (P50172 whole entry): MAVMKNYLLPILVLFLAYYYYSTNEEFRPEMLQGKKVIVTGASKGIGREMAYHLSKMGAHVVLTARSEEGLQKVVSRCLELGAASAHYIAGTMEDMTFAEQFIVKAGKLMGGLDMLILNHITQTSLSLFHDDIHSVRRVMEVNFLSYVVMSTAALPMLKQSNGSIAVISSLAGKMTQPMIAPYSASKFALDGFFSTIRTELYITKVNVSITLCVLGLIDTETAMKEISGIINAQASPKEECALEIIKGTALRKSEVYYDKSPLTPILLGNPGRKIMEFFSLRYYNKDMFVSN

Compound | Rest enzyme activity of mouse 11β-hsd1 (mouse 11β-hsd1; 1 μM test substance, data not shown) [%] | Inhibition of mouse 11β-hsd2 activity (in words) (mouse 11β-hsd2) | IC50 (mouse 11β-hsd1) [nM] | IC50 (mouse 11β-hsd2; 50 nM corticosterone, 20 min, 37°C, read-out: IC50, mouse 11β-hsd2 activity (corticosterone to 11-DHC)) [nM]
C[C@@H](CO)CCC[C@@H](C)[C@H]1CC[C@H]2[C@@H]3[C@H](O)C=C4C[C@@H](O)CC[C@]4(C)[C@H]3CC[C@]12C [7α27OHC] | ~30 | Neither 7β27OHC nor 7α27OHC inhibited |  | 
CC(CO)CCC[C@@H](C)[C@H]1CC[C@H]2[C@@H]3[C@@H](O)C=C4C[C@@H](O)CC[C@]4(C)[C@H]3CC[C@]12C (stereo partly drawn) [7β27OHC, 7β,27-dihydroxycholesterol] |  | Neither 7β27OHC nor 7α27OHC inhibited | 66 ± 11 | 
CC(CO)CCC[C@@H](C)[C@H]1CC[C@H]2[C@@H]3C(=O)C=C4C[C@@H](O)CC[C@]4(C)[C@H]3CC[C@]12C (stereo partly drawn) [7k27OHC, 7-keto,27-hydroxycholesterol] |  |  | 36 ± 2 | 1650 ± 400
